Here are results for 27 compounds from patent US9260408B2, “Dihydroquinoline-2-one derivatives” (Hoffmann-La Roche Inc., priority 2011, dated 2016).

A value given as a limit tells only on which side of the number the result lay.

One assay has as its target T1, human CYP11B2 (Homo sapiens, UniProt P19099).
T1 construct: expressed in transfected cells
T1 sequence (P19099 25-503): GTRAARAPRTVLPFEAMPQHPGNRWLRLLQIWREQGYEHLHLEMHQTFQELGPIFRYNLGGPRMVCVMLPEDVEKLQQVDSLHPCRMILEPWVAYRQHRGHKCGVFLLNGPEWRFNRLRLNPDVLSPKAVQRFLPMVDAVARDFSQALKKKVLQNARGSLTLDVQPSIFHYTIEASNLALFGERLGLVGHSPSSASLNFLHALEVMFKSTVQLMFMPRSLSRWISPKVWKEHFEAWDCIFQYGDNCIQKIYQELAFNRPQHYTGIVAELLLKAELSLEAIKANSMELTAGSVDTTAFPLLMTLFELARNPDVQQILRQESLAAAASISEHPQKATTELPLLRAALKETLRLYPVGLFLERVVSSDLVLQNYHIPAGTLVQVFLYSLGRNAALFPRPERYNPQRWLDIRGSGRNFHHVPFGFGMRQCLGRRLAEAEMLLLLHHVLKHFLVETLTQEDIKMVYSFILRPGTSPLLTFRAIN
Description: G-402 cellular enzyme assay, human CYP11B2 (aldosterone release, HTRF). The note with it: G-402 cells expressing human CYP11B2; 1 μM Deoxycorticosterone. Type of assay: cell-based. The text has this: (§1) Herein we identified the use of the G-402 cell line as a host cell to ectopically express (transiently or stably) enzymes of the CYP11 family. Specifically we developed stable G-402 cells expressing ectopically human CYP11B1, human CYP11B2, human CYP11A1, cynomolgus CYP11B1 or cynomolgus CYP11B2 enzyme activity. Importantly the identified cell line G-402 expresses co-factors (adrenodoxin and adrenodoxin reductase) important for the activity of the CYP11 family and no relevant enzyme activity of the CYP11 family (in comparison to H295R cells) was detected in these cells. Therefore the G-402 cell line is uniquely suited as a host cell for the ectopic expression of enzymes from the CYP11 family.
(§2) G-402 cells can be obtained from ATCC(CRL-1440) and were originally derived from a renal leiomyoblastoma.
(§3) The expression plasmids contains the ORF for either human/cyno CYP11B1 or CYP11B2 under the control of a suitable promoter (CMV-promoter) and a suitable resistance marker (neomycin). Using standard techniques the expression plasmid is transfected into G-402 cells and these cells are then selected for expressing the given resistance markers. Individual cell-clones are then selected and assessed for displaying the desired enzymatic activity using 11-Deoxycorticosterone (Cyp11B2) or 11-Deoxycortisol (Cyp11B1) as a substrate.
(§4) G-402 cells expressing CYP11 constructs were established as described above and maintained in McCoy's 5a Medium Modified, ATCC Catalog No. 30-2007 containing 10% FCS and 400 μg/ml G418 (Geneticin) at 37° C. under an atmosphere of 5% CO2/95% air. Cellular enzyme assays were performed in DMEM/F12 medium containing 2.5% charcoal treated FCS and appropriate concentration of substrate (0.3-10 uM 11-Deoxycorticosterone, 11-Deoxycortisol or Corticosterone). For assaying enzymatic activity, cells were plated onto 96 well plates and incubated for 16 h. An aliquot of the supernatant is then transferred and analyzed for the concentration of the expected product (Aldosterone for CYP11B2; Cortisol for CYP11B1). The concentrations of these steroids can be determined using HTRF assays from CisBio analyzing either Aldosterone or Cortisol.
(§5) Inhibition of the release of produced steroids can be used as a measure of the respective enzyme inhibition by test compounds added during the cellular enzyme assay. The dose dependent inhibition of enzymatic activity by a compound is calculated by means of plotting added inhibitor concentrations (x-axes) vs. measured steroid/product level (y-axes). The inhibition is then calculated by fitting the following 4-parameter sigmoidal function (Morgan-Mercer-Flodin (MMF) model) to the raw data points using the least squares method:
(§6) [formula] wherein, A is the maximum y value, B is the EC50 factor determined using XLFit, C is the minimum y value and D is the slope value.
(§7) EC50 values for compounds claimed herein were tested with the G402-based assay system described. Cyp11B2 enzyme activity was tested in presence of 1 μM Deoxycorticosterone and variable amounts of inhibitors; Cyp11B1 enzyme activity was tested in presence of 1 μM Deoxycortisol and variable amounts of inhibitors.
(Time-resolved FRET reads energy transfer from a long-lived donor to a nearby acceptor.)

A further assay has as its target T2, human CYP11B1 (Homo sapiens, UniProt P15538).
T2 construct: expressed in transfected cells
T2 sequence (P15538 25-503): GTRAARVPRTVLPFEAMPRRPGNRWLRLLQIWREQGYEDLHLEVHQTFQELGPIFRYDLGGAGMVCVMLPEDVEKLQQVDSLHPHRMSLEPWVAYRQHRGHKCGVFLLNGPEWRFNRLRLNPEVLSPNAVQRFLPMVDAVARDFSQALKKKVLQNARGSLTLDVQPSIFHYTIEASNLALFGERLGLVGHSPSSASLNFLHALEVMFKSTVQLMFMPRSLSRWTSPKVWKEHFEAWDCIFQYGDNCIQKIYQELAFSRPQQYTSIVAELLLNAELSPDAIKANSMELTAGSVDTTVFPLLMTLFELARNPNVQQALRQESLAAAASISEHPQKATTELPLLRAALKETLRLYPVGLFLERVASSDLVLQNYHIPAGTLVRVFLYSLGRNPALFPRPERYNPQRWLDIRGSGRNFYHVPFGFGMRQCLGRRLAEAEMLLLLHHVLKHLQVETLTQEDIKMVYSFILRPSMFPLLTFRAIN
Description: G-402 cellular enzyme assay, human CYP11B1 (cortisol release, HTRF). In kind it is cell-based. The note with it: G-402 cells expressing human CYP11B1; 1 μM Deoxycortisol.
Description: as §1, §2, §3, §4, §5, §6, §7

Broadly, the EC50 is the concentration needed to bring the measured effect to its halfway point. For `CCC(=O)NC(C)c1cncc(-c2ccc3c(c2)CCC(=O)N3C)c1Cl` (single isomer, unassigned) [Example 261, N-{(R or S)-1-[4-Chloro-5-(1-methyl-2-oxo-1,2,3,4-tetrahydro-quinolin-6-yl)-pyridin-3-yl]-ethyl}-propionamide], the EC50 at human CYP11B2 came out at 62 nM; on human CYP11B1 it was 1220 nM.
In the same order, the values of `CCC(=O)NC(C)c1cncc(-c2cc3c(cc2F)N(C)C(=O)CC3)c1C` (single isomer, unassigned) [Example 264, N-{(R or S)-1-[5-(7-Fluoro-1-methyl-2-oxo-1,2,3,4-tetrahydro-quinolin-6-yl)-4-methyl-pyridin-3-yl]ethyl}-propionamide] are 24 nM and 2920 nM.
On the same counts, the results for `CCC(=O)NC(C)c1cncc(-c2ccc3c(c2)CCC(=O)N3C)c1C` (single isomer, unassigned) [Example 266, N-{(R or S)-1-[4-Methyl-5-(1-methyl-2-oxo-1,2,3,4-tetrahydro-quinolin-6-yl)-pyridin-3-yl]-ethyl}-propionamide] are 54 nM and 623 nM.
On the same counts, the results for `CCS(=O)(=O)Nc1cncc(-c2ccc3c(c2)CCC(=O)N3C)c1` [Example 1, Ethanesulfonic acid [5-(1-methyl-2-oxo-1,2,3,4-tetrahydro-quinolin-6-yl)-pyridin-3-yl]-amide] are 170 nM and 3700 nM.
Regarding `CC(=O)OCC(=O)Nc1cncc(-c2ccc3c(c2)CCC(=O)N3C)c1` [Example 2, Acetic acid [5-(1-methyl-2-oxo-1,2,3,4-tetrahydro-quinolin-6-yl)-pyridin-3-ylcarbamoyl]-methyl ester], the EC50 was 430 nM on human CYP11B2 and > 3000 nM on human CYP11B1.
For the compound `CN1C(=O)CCc2cc(-c3cncc(NC(=O)CO)c3)ccc21` [Example 3, 2-Hydroxy-N-[5-(1-methyl-2-oxo-1,2,3,4-tetrahydro-quinolin-6-yl)-pyridin-3-yl]-acetamide], the EC50 at human CYP11B2 was 715 nM; on human CYP11B1 it was > 3000 nM.
Turning to `CN1C(=O)CCc2cc(-c3cncc(NCCO)c3)ccc21` [Example 4, 6-[5-(2-Hydroxy-ethylamino)-pyridin-3-yl]-1-methyl-3,4-dihydro-1H-quinolin-2-one], the EC50 is 11 nM on human CYP11B2 and 350 nM at human CYP11B1.
Consider `CN1C(=O)CCc2cc(-c3cncc(N4CCC[C@H]4CO)c3)ccc21` [Example 5, 6-[5-((S)-2-Hydroxymethyl-pyrrolidin-1-yl)-pyridin-3-yl]-1-methyl-3,4-dihydro-1H-quinolin-2-one], for which the EC50 at human CYP11B2 worked out at 19 nM; on human CYP11B1 it was 1080 nM.
For `CN1C(=O)CCc2cc(-c3cncc(N4CCC[C@@H]4CO)c3)ccc21` [Example 6, 6-[5-((R)-2-Hydroxymethyl-pyrrolidin-1-yl)-pyridin-3-yl]-1-methyl-3,4-dihydro-1H-quinolin-2-one], the EC50 on human CYP11B2 came to 98 nM; on human CYP11B1, 3340 nM.
On the same counts, the results for `CN1C(=O)CCc2cc(-c3cncc(CN4CCC[C@H]4CO)c3)ccc21` [Example 7, 6-[5-((S)-2-Hydroxymethyl-pyrrolidin-1-ylmethyl)-pyridin-3-yl]-1-methyl-3,4-dihydro-1H-quinolin-2-one] are 56 nM and 570 nM.
As for `CN1C(=O)CCc2cc(-c3cncc(CN4C(=O)CC[C@H]4CO)c3)ccc21` [Example 8, 6-[5-((S)-2-Hydroxymethyl-5-oxo-pyrrolidin-1-ylmethyl)-pyridin-3-yl]-1-methyl-3,4-dihydro-1H-quinolin-2-one], the EC50 was determined as 49 nM on human CYP11B2 and 2330 nM at human CYP11B1.
On the same counts, the results for `CCNC[C@@H]1CCCN1c1cncc(-c2ccc3c(c2)CCC(=O)N3C)c1` [Example 9, 6-[5-((S)-2-Ethylaminomethyl-pyrrolidin-1-yl)-pyridin-3-yl]-1-methyl-3,4-dihydro-1H-quinolin-2-one] are 829 nM and > 10000 nM.
On the same counts, the results for `COC[C@@H]1CCCN1c1cncc(-c2ccc3c(c2)CCC(=O)N3C)c1` [Example 10, 6-[5-((S)-2-Methoxymethyl-pyrrolidin-1-yl)-pyridin-3-yl]-1-methyl-3,4-dihydro-1H-quinolin-2-one] are 20 nM and 170 nM.
In the same order, the values of `CN1C(=O)CCc2cc(-c3cncc(N4CCC[C@H]4Cn4cncn4)c3)ccc21` [Example 11] are 76 nM and 410 nM.
Regarding `CN1C(=O)CCc2cc(-c3cncc(NCc4ccccc4)c3)ccc21` [Example 12], the EC50 at human CYP11B2 came to 2 nM; on human CYP11B1, 50 nM.
In the same order, the values of `CN1C(=O)CCc2cc(-c3cncc(N4C(=O)CC[C@H]4CO)c3)ccc21` [Example 13] are 319 nM and 17900 nM.
On to `CN1C(=O)CCc2cc(-c3cncc(N4CCCC4=O)c3)ccc21` [Example 14], for which the results for the EC50 on human CYP11B2 and on human CYP11B1 were 308 nM and 1570 nM, respectively.
On the same counts, the results for `CCS(=O)(=O)NCc1cncc(-c2ccc3c(c2)CCC(=O)N3C)c1` [Example 15] are 19 nM and 1200 nM.
For the compound `CCS(=O)(=O)NCc1cncc(-c2cc3c(cc2F)N(C)C(=O)CC3)c1` [Example 16, ethanesulfonic acid [5-(7-fluoro-1-methyl-2-oxo-1,2,3,4-tetrahydro-quinolin-6-yl)-pyridin-3-ylmethyl]-amide], the EC50 at human CYP11B2 was determined as 11 nM; on human CYP11B1, 860 nM.
In the same order, the values of `CCS(=O)(=O)NCc1cncc(-c2ccc3c(c2)C(C)(C)CC(=O)N3C)c1` [Example 17] are 4650 nM and > 10000 nM.
In the same order, the values of `CN1C(=O)CCc2cc(-c3cncc(CN4CCCC4=O)c3)ccc21` [Example 18] are 58 nM and 750 nM.
On to `CN1C(=O)CCc2cc(-c3cncc(CN4CCCCC4=O)c3)ccc21` [Example 19], for which the EC50 worked out at 23 nM at human CYP11B2 and 800 nM at human CYP11B1.
As to `CN1C(=O)CCc2cc(-c3cncc(CN4CCS(=O)(=O)CC4)c3)ccc21` [Example 20], the results for the EC50 on human CYP11B2 and at human CYP11B1 were 3 nM and 20 nM, respectively.
In the case of `COC[C@@H]1CCCN1Cc1cncc(-c2ccc3c(c2)CCC(=O)N3C)c1` [Example 21], the EC50 turned out to be 21 nM on human CYP11B2 and 260 nM on human CYP11B1.
In the case of `COC(=O)[C@@H]1CCCN1Cc1cncc(-c2ccc3c(c2)CCC(=O)N3C)c1` [Example 22], the results for the EC50 on human CYP11B2 and on human CYP11B1 were 25 nM and 100 nM, respectively.
In the case of `CN1C(=O)CCc2cc(-c3cncc(CN4CCC[C@H]4COCC(F)(F)F)c3)ccc21` [Example 23], the concentration giving a half-maximal response (EC50) on human CYP11B2 was determined as 32 nM; at human CYP11B1 it was 390 nM.
On the same counts, the results for `CN1C(=O)CCc2cc(-c3cncc(NCCO)n3)ccc21` [Example 24] are 7 nM and 220 nM.
